For one test, the target named is BRD4(BD1) (Homo sapiens (Human), UniProt O60885). Description: BRD4(BD1) biochemical binding assay (HTRF). Particulars: biotinylated H4 derived acetylated peptide. As for the experimental part:
1. BRD4(BD1) Binding Assays
The BRD4(BD1) biochemical binding assay was performed by Sundia MediTech Co. Ltd. in 384-well white plate (OptiPlate-384, PerkinElmer) using HTRF technology.
Briefly, 20 nL of compounds were transferred to the 384-well plate by Echo® 550 liquid handler (Labcyte, USA), then 5 μL of BRD4(BD1) (Reaction Biology Company, RD-11-157) solution or the assay buffer was added to each well. After incubating at RT for 15 min, 5 μL of the biotinylated H4 derived acetylated peptide (synthesized by GL Biochem (Shanghai) Ltd) and 10 μL of the detection solution (Cisbio Assay) were added to each well. After incubating for 1 h at RT, the HTRF signal was measure at 615 nm and 665 nm using the EnVision Multilabel Plate Reader (PerkinElmer, USA). Results were analyzed with a two-wavelength signal ratio: intensity (665 nm)/intensity (615 nm). The inhibition percentage in the presence of the compound was calculated according to the equation, Percent inhibition=(Max−Signal)/(Max−Min)*100%. Fit the data in GraphPad Prism V5.0 software (San Diego, Calif.) to obtain IC50 values with nonlinear regression analysis using equation, Y=Bottom+(Top−Bottom)/(1+10^((Log IC50−X)×HillSlope), where Y stands for inhibition percentage and X stands for compound concentration.

A further test relates to MV-4-11 cells. Description: MV-4-11 cell proliferation assay (MTS). The format is cell-based. The settings on record: Homo sapiens, MV4-11, 72 h, 3 days culture. As for the experimental part:
2. Cell Proliferation Assay
MV-4-11 cell proliferation analysis was conducted by the MIS (3-(4,5-dimethylthiazol-2-yl)-5-(3-carboxymethoxyphenyl)-2-(4-sulfophenyl)-2H-tetrazolium, inner salt) assay. Briefly, MV-4-11 cells will be cultured in IMDM (Iscove's Modified Dubecco's Medium) medium supplemented with 10% (v/v) FBS (fetal bovine serum), under the temperature of 37° C., […] and 95% humidity. The cells will be harvested respectively during the logarithmic growth period and counted with hemocytometer. The cell viability is over […] by trypan blue exclusion. Adjust MV-4-11 cells concentrations to 1.2×10^5 cells/mL with complete medium. Add 100 μL cell suspensions to 96-well plates (triplicates for each cell concentration), the final cell densities are 1.2×10^4 cells/well. The next day, dissolve the test compound with DMSO as stock solution. Dispense 5 μL of the stock solution in 1 mL culture media and add 25 μL drug media into 96-well plates. After serially diluting with culture media, the final concentration of the compound will be 0, 0.03, 0.1, 0.3, 1, 3, 10, 30, 100 nM. The plates will be cultured for 3 days, then measured by means of MTS assay. Add PMS (phenazinium methosulfate) solution to MITS solution (1:20) immediately before addition to the culture plate containing cells. Pipet 20 μL of the combined MTS/PMS Solution into each well of the 96 well assay plate containing 100 μL of cells in culture medium. Incubate the plate for 1-4 hours at 37° C. in a humidified, 5% CO2 atmosphere. Record the absorbance at 490 nm using a microplate spectrophotometer (Envision®, PeikinElmer). Fit the data using GraphPad 5.0 and obtain IC50 values.

For `Cc1noc(C)c1-c1cnc2c3c(c(C(C)(C)O)nn3C)n([C@H](c3ccccc3)C3CCOCC3)c2c1` [Compound 1, (S)-2-(6-(3,5-dimethylisoxazol-4-yl)-1-methyl-4-(phenyl(tetrahydro-2H-pyran-4-yl)methyl)-1,4-dihydropyrazolo[3′,4′:4,5]pyrrolo[3,2-b]pyridin-3-yl)propan-2-ol], the IC50 came to 0.48 nM on BRD4(BD1) and 0.89 nM in the test with MV-4-11 cells.
Taken in the same sequence, the figures for `Cc1noc(C)c1-c1cnc2c3c(c(C(C)(C)O)nn3C)n([C@H](c3ncccc3F)C3CCOCC3)c2c1` [Compound 2, (S)-2-(6-(3,5-dimethylisoxazol-4-yl)-4-((3-fluoropyridin-2-yl)(tetrahydro-2H-pyran-4-yl)methyl)-1-methyl-1,4-dihydropyrazolo[3′,4′:4,5]pyrrolo[3,2-b]pyridin-3-yl)propan-2-ol] were 0.35 nM and 0.72 nM.
Taken in the same sequence, the figures for `Cc1nnn(C)c1-c1cnc2c3c(c(C(C)(C)O)nn3C)n(C(CCC(F)(F)F)c3ccccc3)c2c1` (stereo not drawn) [Compound 3, 2-(6-(1,4-Dimethyl-1H-1,2,3-triazol-5-yl)-1-methyl-4-(4,4,4-trifluoro-1-phenylbutyl)-1,4-dihydropyrazolo[3′,4′:4,5]pyrrolo[3,2-b]pyridin-3-yl)propan-2-ol] were 0.66 nM and 6.06 nM.
The corresponding values for `Cc1nnn(C)c1-c1cnc2c3c(c(C(C)(C)O)nn3C)n(C(CCC(F)(F)F)c3ncccc3F)c2c1` (stereo not drawn) [Compound 4, 2-(6-(1,4-Dimethyl-1H-1,2,3-triazol-5-yl)-1-methyl-4-(4,4,4-trifluoro-1-(3-fluoropyridin-2-yl)butyl)-1,4-dihydropyrazolo[3′,4′:4,5]pyrrolo[3,2-b]pyridin-3-yl)propan-2-ol] are 0.57 nM and 3.13 nM.
Take `Cc1cccnc1C(C1CCOCC1)n1c2cc(-c3c(C)nnn3C)cnc2c2c1c(C(C)(C)O)nn2C` (stereo not drawn) [Compound 5, 2-(6-(1,4-Dimethyl-1H-1,2,3-triazol-5-yl)-1-methyl-4-((3-methylpyridin-2-yl)(tetrahydro-2H-pyran-4-yl)methyl)-1,4-dihydropyrazolo[3′,4′:4,5]pyrrolo[3,2-b]pyridin-3-yl)propan-2-ol]: the IC50 on BRD4(BD1) worked out at 0.59 nM; in the test on MV-4-11 cells it was 1.24 nM.
The corresponding values for `Cc1nnn(C)c1-c1cnc2c3c(c(C(C)(C)O)nn3C)n([C@H](c3ccccc3)C3CCOCC3)c2c1` [Compound 6, (S)-2-(6-(1,4-dimethyl-1H-1,2,3-triazol-5-yl)-1-methyl-4-(phenyl(tetrahydro-2H-pyran-4-yl)methyl)-1,4-dihydropyrazolo[3′,4′:4,5]pyrrolo[3,2-b]pyridin-3-yl)propan-2-ol] are 0.49 nM and 1.1 nM.
Taken in the same sequence, the figures for `Cc1nnn(C)c1-c1cnc2c3c(c(C(C)(C)O)nn3C)n([C@H](c3ncccc3F)C3CCOCC3)c2c1` [Compound 7, (S)-2-(6-(1,4-dimethyl-1H-1,2,3-triazol-5-yl)-4-((3-fluoropyridin-2-yl)(tetrahydro-2H-pyran-4-yl)methyl)-1-methyl-1,4-dihydropyrazolo[3′,4′:4,5]pyrrolo[3,2-b]pyridin-3-yl)propan-2-ol] were 0.97 nM and 0.7 nM.
The molecule `COC(=O)c1nn(C)c2c3ncc(-c4c(C)nnn4C)cc3n([C@H](c3ncccc3F)C3CCOCC3)c12` [Compound 7-2, (S)-Methyl 6-(1,4-dimethyl-1H-1,2,3-triazol-5-yl)-4-((3-fluoropyridin-2-yl)(tetrahydro-2H-pyran-4-yl)methyl)-1-methyl-1,4-dihydropyrazolo[3′,4′:4,5]pyrrolo[3,2-b]pyridine-3-carboxylate] displayed an IC50 with MV-4-11 cells of 1.11 nM.
Consider `Cc1cccnc1C(C1CCOCC1)n1c2cc(-c3c(C)noc3C)cnc2c2c1c(C(C)(C)O)nn2C` (stereo not drawn) [Compound 8, 2-(6-(3,5-dimethylisoxazol-4-yl)-1-methyl-4-((3-methylpyridin-2-yl)(tetrahydro-2H-pyran-4-yl)methyl)-1,4-dihydropyrazolo[3′,4′:4,5]pyrrolo[3,2-b]pyridin-3-yl)propan-2-ol], for which the IC50 on BRD4(BD1) amounted to 12 nM; in the test with MV-4-11 cells, 31.6 nM.
The corresponding values for `Cc1ccccc1C(C1CCOCC1)n1c2cc(-c3c(C)noc3C)cnc2c2c1c(C(C)(C)O)nn2C` (stereo not drawn) [Compound 9, 2-(6-(3,5-dimethylisoxazol-4-yl)-1-methyl-4-((tetrahydro-2H-pyran-4-yl)(o-tolyl)methyl)-1,4-dihydropyrazolo[3′,4′:4,5]pyrrolo[3,2-b]pyridin-3-yl)propan-2-ol] are 0.99 nM and 5.01 nM.
As for `Cc1nnn(C)c1-c1cnc2c3c(c(C(N)=O)nn3C)n(C(c3ncccc3F)C3CCOCC3)c2c1` (stereo not drawn) [Compound 21, 6-(1,4-Dimethyl-1H-1,2,3-triazol-5-yl)-4-((3-fluoropyridin-2-yl)(tetrahydro-2H-pyran-4-yl)methyl)-1-methyl-1,4-dihydropyrazolo[3′,4′:4,5]pyrrolo[3,2-b]pyridine-3-carboxamide], in the test on MV-4-11 cells, the 50% inhibitory concentration (IC50) is 0.77 nM.
Still for that read-out and setting: with `COc1ccncc1C(C1CCOCC1)n1c2cc(-c3c(C)nnn3C)cnc2c2c1c(C(C)(C)O)nn2C` (stereo not drawn) [Compound 25, 2-(6-(1,4-dimethyl-1H-1,2,3-triazol-5-yl)-4-((4-methoxypyridin-3-yl)(tetrahydro-2H-pyran-4-yl)methyl)-1-methyl-1,4-dihydropyrazolo[3′,4′:4,5]pyrrolo[3,2-b]pyridin-3-yl)propan-2-ol] the figure was 8.25 nM.
As for `Cc1cc(F)cc(C)c1C(C)n1c2cc(-c3c(C)nnn3C)cnc2c2c1c(C(C)(C)O)nn2C` (stereo not drawn) [Compound 27, 2-(6-(1,4-Dimethyl-1H-1,2,3-triazol-5-yl)-4-(1-(4-fluoro-2,6-dimethylphenyl)ethyl)-1-methyl-1,4-dihydropyrazolo[3′,4′:4,5]pyrrolo[3,2-b]pyridin-3-yl)propan-2-ol], the 50% inhibitory concentration (IC50) on BRD4(BD1) stood at 17 nM.
On to `Cc1nnn(C)c1-c1cnc2c3c(c(NS(C)(=O)=O)nn3C)n([C@H](c3ccccc3)C3CCOCC3)c2c1` [Compound 28, (S)—N-(6-(1,4-dimethyl-1H-1,2,3-triazol-5-yl)-1-methyl-4-(phenyl(tetrahydro-2H-pyran-4-yl)methyl)-1,4-dihydropyrazolo[3′,4′:4,5]pyrrolo[3,2-b]pyridin-3-yl)methanesulfonamide], for which, in the test on MV-4-11 cells, the IC50 stood at 10.5 nM.
The molecule `Cc1nnn(C)c1-c1cnc2c3c(c(C(C)(C)O)nn3C)n([C@@H](c3ncccc3F)C3CCOCC3)c2c1` [Compound 30, (R)-2-(6-(1,4-dimethyl-1H-1,2,3-triazol-5-yl)-4-((3-fluoropyridin-2-yl)(tetrahydro-2H-pyran-4-yl)methyl)-1-methyl-1,4-dihydropyrazolo[3′,4′:4,5]pyrrolo[3,2-b]pyridin-3-yl)propan-2-ol] had a concentration for half-maximal inhibition (IC50) on BRD4(BD1) of 3 nM.
For the molecule `Cc1noc(C)c1-c1cnc2c3c(c(C(C)(C)O)nn3C)n([C@@H](c3ncccc3F)C3CCOCC3)c2c1` [Compound 31, (R)-2-(6-(3,5-dimethylisoxazol-4-yl)-4-((3-fluoropyridin-2-yl)(tetrahydro-2H-pyran-4-yl)methyl)-1-methyl-1,4-dihydropyrazolo[3′,4′:4,5]pyrrolo[3,2-b]pyridin-3-yl)propan-2-ol], the IC50 at BRD4(BD1) came to 4.6 nM.
The same measure, in the same setting: to `Cc1nnn(C)c1-c1cnc2c3c(c(CS(C)(=O)=O)nn3C)n(C(c3ccccc3)C3CCOCC3)c2c1` (stereo not drawn) [Compound 33, 6-(1,4-dimethyl-1H-1,2,3-triazol-5-yl)-1-methyl-3-((methylsulfonyl)methyl)-4-(phenyl(tetrahydro-2H-pyran-4-yl)methyl)-1,4-dihydropyrazolo[3′,4′:4,5]pyrrolo[3,2-b]pyridine] belongs 4.67 nM.
Consider `CC(=O)N(c1nn(C)c2c3ncc(-c4c(C)nnn4C)cc3n(C(c3ccccc3)C3CCOCC3)c12)S(C)(=O)=O` (stereo not drawn) [Compound 35, N-(6-(1,4-dimethyl-1H-1,2,3-triazol-5-yl)-1-methyl-4-(phenyl(tetrahydro-2H-pyran-4-yl)methyl)-1,4-dihydropyrazolo[3′,4′:4,5]pyrrolo[3,2-b]pyridin-3-yl)-N-(methylsulfonyl)acetamide], for which, in the test on MV-4-11 cells, the IC50 is 15.5 nM.
